Test results: PubChem BioAssay AID2060485 (Molecular Pharmacology Branch, DTP, NCI, 2025)

Test system: A375 multi-cell spheroids with HUVEC/MSC, viability
Experiment: Anticancer human tumor A375 cell line growth inhibition [GQUAD];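 note: spheroids exposed to compounds for seven days before readout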
Conditions: for IC50: curve of first compound; for viability, T/C: stronger effect = lower value
Summary of the method: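 Viability of tumor cells grown as complex spheroids with endothelial and stromal cells, exposed to drug combinations. Top concentration at or near clinical Cmax (else 10 microM), diluted in half-log increments.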

CC(C)n1c(=O)n(C)c2cnc3cc(F)c(-c4ccc(OCCCN5CCCCC5)nc4)cc3c21 + Cc1[nH]c2ccc(F)cc2c1-c1nc2c3cccnc3c3ncccc3c2[nH]1
IC50 (second compound 0.0316 µM): > 10 µM
IC50 (second compound 0.1 µM): > 10 µM
IC50 (second compound 0.316 µM): > 10 µM
IC50 (second compound 1 µM): > 10 µM
IC50 (second compound 3.16 µM): 5.04 µM
IC50 (second compound 10 µM): 9.55 µM
viability, T/C (second compound 0.0316 µM, first compound 0.0316 µM): 92.3%
viability, T/C (second compound 0.0316 µM, first compound 0.1 µM): 93.3%
viability, T/C (second compound 0.0316 µM, first compound 0.316 µM): 91.1%
viability, T/C (second compound 0.0316 µM, first compound 1 µM): 96.3%
viability, T/C (second compound 0.0316 µM, first compound 3.16 µM): 109%
viability, T/C (second compound 0.0316 µM, first compound 10 µM): 91.1%
viability, T/C (second compound 0.1 µM, first compound 0.0316 µM): 98.2%
viability, T/C (second compound 0.1 µM, first compound 0.1 µM): 89.7%
viability, T/C (second compound 0.1 µM, first compound 0.316 µM): 97.2%
viability, T/C (second compound 0.1 µM, first compound 1 µM): 95.9%
viability, T/C (second compound 0.1 µM, first compound 3.16 µM): 113%
viability, T/C (second compound 0.1 µM, first compound 10 µM): 96.3%
viability, T/C (second compound 0.316 µM, first compound 0.0316 µM): 92.5%
viability, T/C (second compound 0.316 µM, first compound 0.1 µM): 91.8%
viability, T/C (second compound 0.316 µM, first compound 0.316 µM): 112%
viability, T/C (second compound 0.316 µM, first compound 1 µM): 96.7%
viability, T/C (second compound 0.316 µM, first compound 3.16 µM): 106%
viability, T/C (second compound 0.316 µM, first compound 10 µM): 90%
viability, T/C (second compound 1 µM, first compound 0.0316 µM): 89.9%
viability, T/C (second compound 1 µM, first compound 0.1 µM): 98.1%
viability, T/C (second compound 1 µM, first compound 0.316 µM): 97.8%
viability, T/C (second compound 1 µM, first compound 1 µM): 96%
viability, T/C (second compound 1 µM, first compound 3.16 µM): 116%
viability, T/C (second compound 1 µM, first compound 10 µM): 93.7%
viability, T/C (second compound 3.16 µM, first compound 0.0316 µM): 83.5%
viability, T/C (second compound 3.16 µM, first compound 0.1 µM): 80.2%
viability, T/C (second compound 3.16 µM, first compound 0.316 µM): 92.7%
viability, T/C (second compound 3.16 µM, first compound 1 µM): 73%
viability, T/C (second compound 3.16 µM, first compound 3.16 µM): 65.2%
viability, T/C (second compound 3.16 µM, first compound 10 µM): 29.3%
viability, T/C (second compound 10 µM, first compound 0.0316 µM): 106%
viability, T/C (second compound 10 µM, first compound 0.1 µM): 101%
viability, T/C (second compound 10 µM, first compound 0.316 µM): 101%
viability, T/C (second compound 10 µM, first compound 1 µM): 88.4%
viability, T/C (second compound 10 µM, first compound 3.16 µM): 81.2%
viability, T/C (second compound 10 µM, first compound 10 µM): 47.7%
